{"source": "patent US9512176B2", "about": "“Age inhibitors” (Centre National de la Recherche Scientifique, priority 2005, dated 2016)", "test_system": "EA.hy 926 cell line", "assay": "Growth of EA.hy 926 endothelial cells with MG scavengers and/or methylglyoxal (MTT)", "assay_type": "cell-based, human", "method": "The cells used for the test are from the EA.hy 926 cell line, which are endothelial cells obtained by the hybridization of human umbilical vein endothelial cells (HUVECs) with lung cancer cells (A549). The EA.hy 926 endothelial cells are incubated in Dulbecco's modified Eagle's Medium (DMEM) enriched with 10% fetal calf serum. The cells are incubated in 12-well plates. Each well initially contains 100,000 cells. Cell growth is achieved by incubating the cells in 2 ml of culture medium after adding or not adding the various potential inhibitors (1 mM) and/or methylglyoxal (600 μM) for 48 hours at 37° C. in a moist atmosphere with 5% CO2.\nThe number of cells is evaluated in the following way:\nThe cells are stained using the (4,5-dimethylthiazol-2-yl)-2,5-diphenyltetrazolium bromide (MTT) assay. MTT penetrates in the cell where it is converted into formazan. The quantity of formazan formed is proportional to the number of living cells.\nThe results are expressed as a relative percentage of the number of cells after treatment compared to the number of control cells without treatment [100*OD (treated cells)/OD (control cells)]. Detection is carried out by UV/visible spectrophotometry at 570 nm.\nPrinciple: MTT (yellow) penetrates the cell and is converted into an insoluble blue compound, formazan, by cleavage of its tetrazolium rings by the mitochondrial dehydrogenase enzymes of living cells. Formazan is solubilized by isopropanol. The number of cells is proportional to the quantity of formazan formed and its absorbance.", "note": "Non-standard residues stand in square brackets, D forms with d. Residues, ends and D or L forms follow the SMILES beside them. Dap = NC[C@H](N)C(=O)O"}
{"smiles": "CC(C)C[C@H](NC(=O)[C@@H](N)CN)C(=O)O", "note": "[example 1, L-DAPA-L-Leu.2HCl] (H-[Dap]-Leu-OH)", "values": [{"measurement": "cell survival when incubated with MG", "result": 81, "unit": "%"}, {"measurement": "viability at 1000 µM", "setting": "Homo sapiens, EA.hy 926, scavenger 1 mM + methylglyoxal 600 μM, 48 hours, relative to untreated control cells, MG alone 24, mean of 3 experiments, read-out: Cells + MG scavengers + Methylglyoxal (B)", "result": 81, "unit": "%"}, {"measurement": "Difference (B) − (A)", "setting": "Table 2, cells with scavenger + MG minus cells with scavenger alone", "result": "−13"}, {"measurement": "Cells + MG scavengers (A)", "setting": "scavenger 1 mM, no methylglyoxal, 48 hours, number of cells relative to untreated control cells, mean of 3 experiments", "result": 94, "unit": "%"}, {"measurement": "effect against suppression of cell growth by MG", "setting": "scavenger + methylglyoxal", "result": "same trend"}, {"measurement": "difference between number of cells growing with compound and with MG and compound", "setting": "values in brackets", "result": "−13"}]}
